These results are taken from ChEMBL document CHEMBL1140606, “Green tea catechins inhibit bacterial DNA gyrase by interaction with its ATP binding site” (J Med Chem, 2007).

The nature of assay [1]: Displacement of fluorescent quercetin from Escherichia coli BL21 (DE3) recombinant DNA gyrase B G24.
Assay [2] deals with Escherichia coli. Briefly: Inhibition of Escherichia coli DNA gyrase B ATPase activity.
For assay [3], the system named is Escherichia coli. Briefly: Inhibition of Escherichia coli DNA gyrase B supercoiling activity upto 100 uM.
In assay [4] the test system is Escherichia coli. Put plainly: Displacement of picogreen from Escherichia coli DNA gyrase B.
The test system of assay [5] is Escherichia coli. Briefly: Displacement of ethidium bromide from Escherichia coli DNA gyrase B.
Assay [6] relates to Escherichia coli. Put plainly: Antibacterial activity against Escherichia coli. It counts as functional.
For assay [7], the system named is Escherichia coli. Put plainly: (§1) Inhibition of Escherichia coli DNA gyrase B supercoiling activity.
A short description of assay [8]: as §1.

Molecules are shown by their SMILES. Converted amounts (≈) assume the structure as drawn. The source made the active and inactive calls. The calls are words filed in the database; no cut-off is given here. A value given as a limit tells only on which side of the number the result lay.

The term Kd denotes the concentration at which binding is half-saturated. One may read the MIC as the least concentration at which growth counts as inhibited. Low values mean a more susceptible organism, high ones a less susceptible organism. One may read the IC50 as the concentration at which inhibition is half-maximal. A low value points to inhibition by little substance.

In the case of `Oc1cc(O)c2c(c1)O[C@H](c1cc(O)c(O)c(O)c1)[C@H](O)C2` [EPIGALLOCATECHIN], in assay [1], the Kd is 34 µM. Also, in assay [2], the outcome was Active. Further, the outcome in assay [3], in assay [4] and in assay [5] was inactive. The same compound had an MIC in assay [6] of 100 µM (≈ 30.6 µg/mL).
Turning to `Oc1cc(O)c2c(c1)O[C@H](c1ccc(O)c(O)c1)[C@H](O)C2` [(-)-EPICATECHIN], in assay [1], the Kd is 54 µM. In addition, the result in assay [2], in assay [7], in assay [3], in assay [4] and in assay [5] was inactive. In assay [6], this compound showed an MIC greater than 1000 µM.
Regarding `O=c1c(O)c(-c2ccc(O)c(O)c2)oc2cc(O)cc(O)c12` [QUERCETIN], the equilibrium dissociation constant (Kd) in assay [1] was 15 µM.
Regarding `O=C(O[C@@H]1Cc2c(O)cc(O)cc2O[C@@H]1c1ccc(O)c(O)c1)c1cc(O)c(O)c(O)c1` [EPICATECHIN GALLATE], in assay [1], the Kd worked out at 36 µM. In addition, the outcome in assay [2] was Active. In assay [8], this compound showed an IC50 of 50 µM. The outcome in assay [4] and in assay [5] was inactive. 25 µM (≈ 11.1 µg/mL) was the least that counted as inhibitory in assay [6] (MIC).
Turning to `O=C(O[C@@H]1Cc2c(O)cc(O)cc2O[C@@H]1c1cc(O)c(O)c(O)c1)c1cc(O)c(O)c(O)c1` [EPIGALOCATECHIN GALLATE], the Kd in assay [1] is 23 µM. For the same compound, the result in assay [2] was Active. Also, in assay [8], the half-inhibitory concentration (IC50) came out at 50 µM. Moreover, the result in assay [4] and in assay [5] was inactive. The MIC in assay [6] amounted to 10 µM (≈ 4.58 µg/mL).
